The text below walks through data of PMC9963438, “Emerging Effects of Resveratrol Derivatives in Cells Involved in Oral Wound Healing: A Preliminary Study” (International Journal of Molecular Sciences, 2023).

Where only a bound is given, the exact number is not on record here.

For data set [1], the system named is HOBs. Kind of data set: LDH release assay on HOBs. The note with it: 24 h. Type of data set: cell-based, human. The protocol: Lactate Dehydrogenase (LDH) activity in HUVECs, HGFs, and HOBs was measured with a cytotoxicity detection kit LDH (Roche, Basilea, Swiss). Firstly, 5000 cells/well (HUVECs, HGFs and HOBs) were seeded in 96-well plates and treated with 1d and 1h (5, 10, 20 µM). After 24 h, the assay was performed according to manufacturer instructions. LDH release was calculated as a percentage with respect to the control (CTRL).

Data set [2] is described as follows: LogP determination (n-octanol/phosphate buffer pH 7.4). The note with it: n-octanol/aqueous phosphate buffer, pH 7.4, n-octanol / phosphate buffer pH 7.4; mean of three experiments (SD). Type of data set: physicochemical. The protocol: Both n-octanol and aqueous phosphate buffer (pH 7.4) solutions were saturated of each other by shaking. A total of 1 mL of n-octanol was added to an equal volume of an aqueous phosphate buffer (pH 7.4). A total of 5 mg of each compound was added and mixed by repeated inversion up to 200 times for 5 min and then allowed to stand for 30 min for the full separation of the two phases. Next, the respective phases were filtered and analyzed by HPLC [50] and the logarithm of the ratio of the concentrations of the unionized solute in the solvents (LogP) were determined.

In another data set the test system is HGFs. Kind of data set: Toluidine blue staining, morphology and confluence of HGFs. The note with it: for HGFs confluence: compared to controls. Type of data set: cell-based, human. On the procedure: The influence of 1d and 1h was evaluated on cells density and morphology by toluidine-blue staining. A total of 2 × 10^4 cells/well were cultured in 24-well plates and were incubated at 37 °C and 5% CO2 with tested compounds at 5 µM. After 48 and 72 h, adherent cells were fixed with 70% cold ethanol and stained with 1% toluidine blue and 1% borax (Sigma Aldrich, St. Louis, MO, USA). Cells were then observed by an inverted microscope connected with a camera at 40×, 100×, and 200× magnifications (Leica, Wild Heer-brugg, Wetzlar, Germany).

Data set [3] relates to HOBs. Description: MTT viability/proliferation on HOBs. Type of data set: cell-based, human. The note with it: vs CTRL and RSV 10 µM. The protocol: (§1) To measure HUVECs, HGFs, and HOBs metabolic activity as an indicator of cell viability and proliferation, an MTT assay (Sigma Aldrich, Milan, Italy) was performed. In brief, 8000 cells/well (HUVECs, HGFs and HOBs) were seeded in 96-well plates and after 24 h cells were treated with increasing concentrations of 1d and 1h for 48 h and 72 h. Then, the medium was replaced by a fresh one supplemented with […] MTT and probed for 4 h at 37 °C. The medium containing MTT was discarded and replaced by an equal volume of DMSO to dissolve formazan crystals. The absorbance of the solution was read at a 540 nm wavelength by a microplate reader (Multiskan GO, Thermo Scientific, MA, USA). Values obtained without cells were considered as background. Viability and proliferation were normalized to control cells treated with DMSO 0.1%.

Data set [4] concerns HOBs. Kind of data set: Alizarin red staining and calcium deposition (CPC) in HOBs. Type of data set: cell-based, human. The note with it: 5 µM, 14 days. The protocol: To evaluate mineralization qualitatively, Alizarin red staining was performed. 5 × 10^4/well HOBs were seeded and treated with 1d and 1h. After 14 days of culture, HOBs were rinsed three times with PBS and fixed with a glutaraldehyde solution (2.5%) for 2 h. An Alizarin staining solution (Sigma-Aldrich) was then added for 1h at room temperature and the excess dye was removed using deionized water. The presence of calcium deposition was qualitatively evaluated by observing the intensity of the red color. Images were taken by a stereomicroscope connected with a camera at a magnification of 12× (Leica, Wetzlar, Germany). Furthermore, to quantify calcium deposition, Cetylpyridinium Chloride (CPC) was used. Upon a washing with deionized water, cells were treated with 1 mL of 10% CPC solution (Sigma-Aldrich) for 1 h to chelate calcium ions. After incubation, the absorbance was read at 540 nm by a microplate reader (Synergy H1 Hybrid BioTek Instruments) and normalized with the cell number.

A further data set concerns HUVECs. Kind of data set: MTT viability/proliferation on HUVECs. Type of data set: cell-based, human. On the procedure: as §1
The subject of data set [5] is human gingival fibroblasts (HGFs). Kind of data set: MTT cytocompatibility screening on HGFs, 24 h. Type of data set: cell-based. The note with it: for HGFs metabolic activity / cell viability (MTT): 10 µM, vs control (DMSO) and RSV; for HGFs cell viability (MTT): vs control and RSV.
A short description of data set [6]: Kinetics in human plasma (enzymatic hydrolysis). Type of data set: in vitro ADME. The note with it: 37 °C; for Enzymatic hydrolysis t ½ / Enzymatic hydrolysis Kobs: Human plasma; for Enzymatic hydrolysis Kobs: mean of three experiments (SD); for half-life at 40 µg/mL: human, human plasma (80%) diluted with phosphate buffer, pH 7.4, Human plasma, read-out: Enzymatic hydrolysis t ½. On the procedure: Human plasma was obtained from 3H Biomedical (Uppsala, Sweden, Europe). Plasma fractions (2 mL) were diluted with […] of a 0.02 M phosphate buffer (PBS, pH 7.4) to obtain a final volume of 2.5 mL (80% of plasma). A total of 100 µL of a stock solution, prepared to dissolve 1 mg of each compound in 1 mL of ACN, was added. Studies were performed at 37 ± 0.5 °C using a shaking bath. Aliquots (100 µL) were taken at established time points and treated with 400 µL of 0.01 M HCl in methanol. After centrifugation for 15 min at 6000× g, the supernatant was filtered and analyzed by HPLC [51].

Another data set has as its system COL1 mRNA in HGFs. Description: RT-qPCR of COL1 in HGFs. Type of data set: cell-based, human. The protocol: Total RNA was isolated using Trifast reagent (EuroClone) according to the manufacturer instructions from 3 × 10^5 cells/well treated with increasing concentrations of 1d and 1h for 48 h and 72 h. Complementary DNA (cDNA) was obtained using GoTaq® 2 Step RT-qPCR Kit (Promega, Madison, WI, USA) in accordance with the manufacturer’s instructions. RT-qPCR was carried out using SYBR Green (Promega) on the Quant Studio 7 Pro Real-Time PCR System (ThermoFisher, Waltham, MA, USA). The results were normalized to glyceraldehyde 3-phoshate dehydrogenase (GAPDH) for HUVECs and HGFs and to β-actin (βACT) for HOBs using the 2^−ΔΔCt method.
For orientation: In qPCR the cycle at which signal appears reflects the starting amount.

Setting [7] is: 10 and 20 µM, differences not significant.
The mark [8] stands for this setting: 72 h, 1d and 1h 5 µM, RSV 10 µM.
The mark [9] stands for this setting: 5 µM, 72 h, vs CTRL and RSV 10 µM.
The mark [10] stands for this setting: 10 µM, 48 h, vs CTRL and RSV 10 µM.
The mark [11] stands for this setting: 10 µM, 72 h, vs CTRL and RSV 10 µM.
Where [12] appears, read: 20 µM, 72 h, vs CTRL and RSV 10 µM.
Where [13] appears, read: all concentrations (5, 10, 20 µM), 48 and 72 h.

As for `CCS(=O)(=O)Nc1ccc(/C=C/c2ccccc2)cc1` [1h, N-{4-[(E)-2-Phenylvinyl]phenyl}ethanesulfonamide], the LDH release entry in the data set with HOBs [1] (5 µM) is recorded as “lowest LDH values”; in the data set on HOBs [1] (setting [7]), “slightly increased the LDH”. The logP (as a rule, the decadic logarithm of the partition coefficient of the neutral form, usually between octanol and water) in [2] is less than 3. The HGFs morphology result in the data set with HGFs (5 µM, 48 h) was “short and broad and assumed a cuboid to polygonal aspect”; in the data set on HGFs (setting [8]) it was “mainly appeared as long spindles”. Besides, the HGFs confluence result in the data set on HGFs (5 µM, 72 h) is reported as “nearly confluent”. The “HOBs metabolic activity / proliferation (MTT)” value was “enhanced the metabolic activity of osteoblasts” in the data set with HOBs [3] (5 µM, 48 h); “significantly enhanced cell proliferation with respect to the CTRL” with HOBs [3] (5 µM, 72 h); “slightly promoted cell growth” in the data set with HOBs [3] (10 µM, 48 h); “decreased in respect to the CTRL and RSV” with HOBs [3] (20 µM, 48 h). Moreover, the “matrix mineralization by ARS (qualitative)” value in the data set on HOBs [4] was “stimulated the formation of mineralized nodules”. Also, the “HUVECs viability (MTT)” value with HUVECs (setting [9]) is reported as “slightly favored cell growth with respect to RSV”; in the data set on HUVECs (setting [10]), “viability was not induced”; in the data set with HUVECs (setting [11]), “viability significantly decreased”; in the data set with HUVECs (20 µM, 48 h, vs CTRL and RSV 10 µM), “viability was not induced”; in the data set on HUVECs (setting [12]) it was “viability significantly decreased”. Besides, the “HGFs metabolic activity / cell viability (MTT)” value in data set [5] is reported as “statistically augmented the cell viability”. Moreover, the figures for the “HGFs cell viability (MTT)” value in data set [5] (20 µM) and in data set [5] (50 µM) were “slight increase in HGF viability” and “no statistically significant differences”, respectively. Besides, the “Enzymatic hydrolysis t ½” value in data set [6] is 51.7 h. Besides, the “Enzymatic hydrolysis Kobs” value in [6] is recorded as 0.013 (±0.003) h^−1. Also, the half-life at 40 µg/mL in data set [6] was more than 2940 min. In addition, in the data set with COL1 mRNA in HGFs (setting [13]), the “COL1 mRNA level” value is “increase in COL1 mRNA level”.

Turning to `Cc1ccc(S(=O)(=O)Nc2ccc(/C=C/c3ccccc3)cc2)cc1` [1d, 4-Methyl-N-{4-[(E)-2-phenylvinyl]phenyl}benzenesulfonamide], the values for the LDH release entry in the data set on HOBs [1] (5 µM) and in the data set with HOBs [1] (setting [7]) were “lowest LDH values” and “slightly increased the LDH”, respectively. The logP in data set [2] was less than 3. In addition, the HGFs morphology entry is “short and broad and assumed a cuboid to polygonal aspect” in the data set with HGFs (5 µM, 48 h); “mainly appeared as long spindles” in the data set with HGFs (setting [8]). For the same compound, in the data set on HGFs (5 µM, 72 h), the HGFs confluence result is “nearly confluent”. The “HOBs metabolic activity / proliferation (MTT)” value with HOBs [3] (5 µM, 48 h) is “enhanced the metabolic activity of osteoblasts”; with HOBs [3] (5 µM, 72 h) it was “significantly promoted the proliferation of cells”; with HOBs [3] (10 µM, 48 h), “slightly promoted cell growth”. Moreover, in the data set on HOBs [4], the “matrix mineralization by ARS (qualitative)” value was “higher mineralization potential”. Also, the “calcium deposition (quantitative measurement with CPC)” value with HOBs [4] (vs control, RSV and 1h) is reported as “significantly stimulated the calcium deposition”. Moreover, the “HUVECs viability (MTT)” value in the data set on HUVECs (5 µM, 48 h, vs CTRL (0.1% DMSO) and RSV 10 µM) is “slight increase in metabolic activity at 5 µM compared to the CTRL and a significant increase compared to RSV”; with HUVECs (setting [9]), “significantly promoted cell viability with respect to RSV”; in the data set with HUVECs (setting [10]), “slightly increased for 10 µM only with respect to RSV”; in the data set on HUVECs (setting [11]), “viability was not enhanced”; in the data set with HUVECs (setting [12]), “viability was not enhanced”. Also, the “HGFs metabolic activity / cell viability (MTT)” value in data set [5] is listed as “statistically augmented the cell viability”. In addition, the “HGFs cell viability (MTT)” value was “statistically significant increase in HGF viability” in data set [5] (20 µM); “positively and statistically increases cell viability” in data set [5] (50 µM). The “Enzymatic hydrolysis t ½” value in data set [6] came to 49.5 h. For the same compound, in [6], the “Enzymatic hydrolysis Kobs” value is 0.014 (±0.005) h^−1. Further, the half-life at 40 µg/mL in [6] was more than 2940 min. In addition, the “COL1 mRNA level” value is recorded as “significantly highest result” in the data set with COL1 mRNA in HGFs (5 µM, 48 h, compared to CTRL and RSV); “increase in COL1 mRNA level” in the data set on COL1 mRNA in HGFs (setting [13]).
